The values that follow come from patent publication US11731946B2, “Broad spectrum antivirulence, anti-persistence compounds” (priority 2017, dated 2023).

Molecules are shown by their SMILES.

For test [1], the system named is MvfR regulon. Put plainly: Quantification of pyocyanin (OD520nm of chloroform-extracted cultures). Type of test: cell-based, P. aeruginosa. The following applies: for activity at 50 µM / activity at 1 µM / activity at 10 µM / IC50: Pseudomonas aeruginosa; for activity at 50 µM: read-out: pyocyanin @50 uM (%), compound at 50 uM; for activity at 1 µM: read-out: pyocyanin @1 uM (%), compound at 1 uM; for activity at 10 µM: read-out: pyocyanin @10 uM (%), compound at 10 uM; for IC50: read-out: IC50 pyocyanin (μM).

Test [2] deals with MvfR regulon. Put plainly: pqsA gene expression (pqsA-GFP reporter). Type of test: cell-based, P. aeruginosa. The conditions noted are these: for activity at 10 µM / activity at 50 µM: Pseudomonas aeruginosa; for activity at 10 µM: read-out: pqsA @10 uM (%), compound at 10 uM; for activity at 50 µM: read-out: pqsA @50 uM (%), compound at 50 uM. Here is the method: Experiments were performed to identify compounds that inhibit the MvfR regulon without altering growth, ultimately attenuating P. aeruginosa infection. MvfR is a LysR-type transcriptional regulator that directs HAQs synthesis, including that of its ligands, 4-hydroxy-2-heptylquinoline (HHQ) and 3,4-dihydroxy-2-heptylquinoline (PQS).
MvfR promotes the production of HAQs by binding to and activating the pqs operon, which encodes enzymes for HAQ synthesis. Anthranilic acid (AA), derived from the phnAB, kynABU, and trpEG pathways, is the precursor for HAQs. pqsA encodes an anthranilate-coenzyme A ligase, which activates anthranilic acid and catalyzes the first committed step to HAQ production. The exact roles of PqsB and PqsC are unknown, though both show homology to acyl-carrier-proteins and both are required for HHQ and PQS production. […] The final gene of the operon, pqsE encodes for a putative hydrolase, and while the protein is not required for the synthesis of HAQs, it is necessary for pyocyanin production.
Nanomolar levels of most of these MvfR antagonists impeded the activity of MvfR and in consequence the MvfR virulence regulated ACRP functions, including: (1) the production of the important pro-acute P. aeruginosa virulence factor pyocyanin (see e.g., FIG. 9A) the efficacy of two of these potent inhibitors, D57 and D88, was also confirmed by testing many different MDR P. aeruginosa clinical isolates (see e.g., FIG. 11A-11B), providing further confidence of their inhibitory potency; (2) the expression of the genes that encode the enzymes catalyzing the synthesis of both pro-acute and pro-persistence MvfR-regulated virulence molecules, 4-hydroxyl-2-alkyl-quinolines (HAQs) and 2-aminoacetophenon (2-AA), as assessed by pqsAGFP reporter gene expression (see e.g., FIG. 9B) and HAQ production showing the levels of MvfR inducers/ligands HHQ and PQS as well as of the molecules critical for biofilm and Antibiotic tolerant/persiters cells formation HQNO and 2-AA (see e.g., FIG. 9C); (3) AT/P cell formation (see e.g., FIGS. 11A, 12A); (4) biofilm formation (see e.g., FIG. 12B); and (5) biofilm dispersal of preformed biofilm by potentiating antibiotic action (see e.g., FIG. 11B).

The mark [3] stands for this setting: compound at 50 uM, listed as D92.

With `O=C(CC(=O)Nc1ccc(Oc2ccccc2)cc1)Nc1ccc(Br)cc1` [Compound 79], in test [1], the activity at 50 µM amounted to 47.7%. In test [2], the activity at 10 µM was 64.5% and the activity at 50 µM is 60.5%.

Turning to `CC(=O)c1ccc(NC(=O)CNc2ccc(F)cc2C)cc1` [Compound 20], the activity at 50 µM was 102% in test [1] and 97.7% in test [2].

As to `N#Cc1ccc(NC(=O)CC(=O)N2CCc3cc(C#N)ccc32)cc1` [Compound 97], in test [1], the activity at 1 µM was found to be 99.9%, the activity at 10 µM came out at 74.5% and the activity at 50 µM was found to be 82.3%. The activity at 10 µM in test [2] amounted to 99.7%.

As for `N#Cc1ccc(/C=C/C(=O)Nc2ccc(C#N)cc2)cc1` [Compound 98], in test [1], the activity at 1 µM amounted to 94.5%, the activity at 10 µM was determined as 108% and the activity at 50 µM is 114%. Also, the activity at 10 µM in test [2] came out at 114%.

In the case of `Cc1cc(F)ccc1NCC(=O)Nc1ccccc1Br` [Compound 14], the activity at 50 µM in test [1] came to 101%; in test [2] it was 96.2%.

Turning to `Cc1cc(NC(=O)CNc2ccc(F)cc2C)ccc1Br` [Compound 43], the values for the activity at 50 µM in test [1] and in test [2] were 68.5% and 47%, respectively.

With `CCc1ccccc1NCC(=O)Nc1ccc(C#N)cc1` [Compound 15], the results for the activity at 50 µM in test [1] and in test [2] were 97.3% and 92%, respectively.

Take `N#Cc1ccc(NC(=O)C2(C(=O)Nc3ccc(C#N)cc3)CC2)cc1` [Compound 102]: in test [1], the activity at 50 µM worked out at 96.8%. Also, the activity at 10 µM in test [2] was 93.4%.

In the case of `Cc1ccccc1NCC(=O)Nc1ccccc1` [Compound 38], the activity at 50 µM in test [1] was 102%; in test [2], 95.4%.

As to `N#Cc1ccc(NCC(=O)Nc2ccc(F)cc2)cc1` [Compound 36], the values for the activity at 50 µM in test [1] and in test [2] were 59.1% and 25.5%, respectively.

For the compound `Cc1cccc(NC(=O)CC(=O)Nc2ccc(C#N)cc2)c1` [Compound 85], in test [1], the activity at 1 µM stood at 94%, the activity at 10 µM worked out at 75.3% and the activity at 50 µM was 49.7%. For the same compound, the activity at 10 µM in test [2] was found to be 84.8%.

Consider `N#Cc1ccc(NC(=O)CC(=O)Nc2cccc(F)c2)cc1` [Compound 87], for which, in test [1], the activity at 1 µM was found to be 94.6%, the activity at 10 µM was 65.5% and the activity at 50 µM is 30.2%. Further, in test [2], the activity at 10 µM was determined as 77.8%.

For `Cc1cc(F)ccc1NCC(=O)NC1CC1` [Compound 35], the activity at 50 µM stood at 107% in test [1] and 92.5% in test [2].

`CC(=O)Nc1cccc(NCC(=O)Nc2ccc(C#N)cc2)c1C` [Compound 39]: the activity at 50 µM came out at 93.4% in test [1] and 99.5% in test [2].

Take `CNC(=O)NC(=O)CNc1ccc(F)cc1C` [Compound 23]: the activity at 50 µM in test [1] stood at 101%; in test [2] it was 97%.

Regarding `O=C(CC(=O)Nc1ccc(C(F)(F)F)cc1)Nc1ccc(Oc2ccccc2)cc1` [Compound 113], in test [1], the activity at 1 µM came to 68%, the activity at 10 µM is 60.9% and the activity at 50 µM is 42.1%. In test [2], the activity at 10 µM came out at 37.2% and the activity at 50 µM was found to be 28.8%.

Consider `N#Cc1ccc(NC(=O)CC(=O)Nc2ccc(C#N)nc2)cn1` [Compound 106], for which, in test [1], the activity at 1 µM was 90%, the activity at 10 µM amounted to 75.6% and the activity at 50 µM came out at 43.1%. In test [2], the activity at 10 µM is 80% and the activity at 50 µM came to 38.9%.

For the compound `N#Cc1ccc(NC(=O)CNc2ccccc2F)cc1` [Compound 37], the values for the activity at 50 µM in test [1] and in test [2] were 97.3% and 84%, respectively.

Turning to `N#Cc1ccc(NC(=O)CC(=O)Nc2ccc(C#N)nc2)cc1` [Compound 92], in test [1], the IC50 was 1.61 µM, the activity at 1 µM worked out at 64.5%, the activity at 10 µM is 13.9% and the activity at 50 µM turned out to be 6.8%. The activity at 10 µM in test [2] amounted to 25.4%.

Take `Cc1cc(F)ccc1NCC(=O)Nc1cccc([N+](=O)[O-])c1` [Compound 26]: the values for the activity at 50 µM in test [1] and in test [2] were 85.2% and 76.5%, respectively.

Consider `O=C(CC(=O)Nc1ccc(Oc2ccccc2)cc1)Nc1ccc(I)cc1` [Compound 74], for which the activity at 50 µM was determined as 71.8% in test [1] and 81.2% in test [2]. Moreover, in test [2], the activity at 10 µM stood at 86%.

For the compound `Nc1cc([N+](=O)[O-])ccc1NC(=O)CC(=O)Nc1ccc(Oc2ccccc2)cc1` [Compound 75], the activity at 50 µM in test [1] worked out at 6.13%. In test [2], the activity at 10 µM was 9.83%.

`Cc1cc(F)ccc1NCC(=O)Nc1cccc(C#N)c1` [Compound 25]: the activity at 50 µM was determined as 100% in test [1] and 90.2% in test [2].

For the compound `Cc1ccc(NCC(=O)Nc2ccccc2)c(C)c1` [Compound 41], the activity at 50 µM in test [1] amounted to 94.5%; in test [2], 92.8%.

As for `O=C(Nc1ccc(Oc2ccccc2)cc1)[C@@H](F)C(=O)Nc1ccc(C(F)(F)F)cc1` (racemic) [Compound 115], in test [1], the activity at 1 µM amounted to 27.1%, the activity at 10 µM came to 11.4% and the activity at 50 µM is 7.08%. Further, in test [2], the activity at 10 µM is 1.05% and the activity at 50 µM turned out to be 1.75%.

In the case of `CC(F)(C(=O)Nc1ccc(C#N)cc1)C(=O)Nc1ccc(C#N)cc1` [Compound 109], in test [1], the activity at 1 µM came out at 98.6%, the activity at 10 µM is 78.2% and the activity at 50 µM was found to be 51.5%. Moreover, in test [2], the activity at 10 µM turned out to be 87% and the activity at 50 µM stood at 84.9%.

Turning to `Cc1ccc(NC(=O)CNc2ccc(F)cc2C)c(C)c1` [Compound 33], the activity at 50 µM in test [1] stood at 112%; in test [2] it was 87.3%.

Turning to `Cc1cc(F)ccc1NCC(=O)Nc1ccc(C(=O)N(C)C)cc1` [Compound 31], the activity at 50 µM in test [1] was 109%; in test [2], 99.8%.

Regarding `N#Cc1ccc(NC(=O)C[C@H](Nc2ccc(Oc3ccccc3)cc2)C(F)(F)F)cc1` (racemic) [Compound 108], in test [1], the activity at 1 µM was found to be 91.9%, the activity at 10 µM was found to be 76.8% and the activity at 50 µM was 91%. For the same compound, in test [2], the activity at 10 µM stood at 87% and the activity at 50 µM stood at 88.4%.

Consider `O=C(CC(=O)Nc1ccc(Oc2ccccc2)cc1)Nc1ccc(F)cc1` [Compound 83], for which, in test [1], the IC50 was found to be 0.83 µM, the activity at 1 µM worked out at 44.7%, the activity at 10 µM is 41.3% and the activity at 50 µM was found to be 33.5%. In addition, in test [2], the activity at 10 µM came to 27.7%.

As for `N#Cc1ccc2c(c1)OCCN2C(=O)CC(=O)Nc1ccc(Oc2ccccc2)cc1` [Compound 105], in test [1], the 50% inhibitory concentration (IC50) stood at 2.78 µM, the activity at 1 µM was found to be 68%, the activity at 10 µM amounted to 32% and the activity at 50 µM was found to be 11.4%. Moreover, the activity at 10 µM in test [2] was 47.3%.

Turning to `Cc1cc(F)ccc1NCC(=O)Nc1ccc(Br)cc1C` [Compound 19], the results for the activity at 50 µM in test [1] and in test [2] were 88.7% and 70%, respectively.

On to `N#Cc1ccc(NC(=O)CC(=O)Nc2cccc(Cl)c2)cc1` [Compound 86], for which, in test [1], the IC50 was determined as 1.54 µM, the activity at 1 µM was determined as 83.2%, the activity at 10 µM turned out to be 45.4% and the activity at 50 µM came to 12.5%. In addition, the activity at 10 µM in test [2] was found to be 59.8%.

`N#Cc1ccc(NC(=O)C(N)C(=O)Nc2ccc(C#N)cc2)cc1` [Compound 114]: in test [1], the activity at 1 µM was 94.9%, the activity at 10 µM turned out to be 66.1% and the activity at 50 µM is 2.85%. In test [2], the activity at 10 µM came to 58.9% and the activity at 50 µM amounted to 1.75%.

On to `N#Cc1ccc(NC(=O)CS(=O)(=O)Nc2ccc(C#N)cc2)cc1` [Compound 96], for which, in test [1], the activity at 1 µM turned out to be 97.3%, the activity at 10 µM turned out to be 109% and the activity at 50 µM amounted to 111%. Also, in test [2], the activity at 10 µM is 118%.

For the compound `CC(C(=O)Nc1ccc(C#N)cc1)C(=O)Nc1ccc(C#N)cc1` [Compound 95], in test [1], the concentration for half-maximal inhibition (IC50) amounted to 1.35 µM, the activity at 1 µM worked out at 93.5%, the activity at 10 µM stood at 23.9% and the activity at 50 µM amounted to 7%. In test [2], the activity at 10 µM came out at 45.7%.

As to `N#Cc1ccc(NC(=O)CC(=O)Nc2ccc(Oc3ccccc3)cc2)c(N)c1` [Compound 107], the activity at 1 µM in test [1] worked out at 75%. Besides, the activity at 10 µM in test [1] amounted to 12.1%; in test [2], 2.1%. For the same compound, the “pyocyanin @50 uM (%)” value in test [1] (setting [3]) worked out at 3.51%. In test [2] (setting [3]), the “pqsA @50 uM (%)” value turned out to be 1.40%.

As to `Cc1cc(F)ccc1NCC(=O)Nc1ccc(N2CCCC2=O)cc1` [Compound 21], the activity at 50 µM in test [1] was found to be 107%; in test [2] it was 105%.
